Measurements reported in PubChem BioAssay (NCI).
Where “and” joins values, the source holds several entries; their conditions need not be identical. Equal entries are not always repeated.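 Test compounds were applied to cells in 96-well plates for 48 hours at 5 doses. GI50: concentration for 50% inhibition of growth. TGI denotes the concentration required for complete inhibition of growth.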

Columns and labels:
Assay in all cases: growth of human tumour cells (NCI), 48 h
[1] = tested on: SNB-75 CNS
[2] = tested on: HCT-15 colon
[3] = tested on: K-562 leukemia
[4] = tested on: MALME-3M melanoma
[5] = tested on: KM12 colon
[6] = tested on: U251 CNS
[7] = tested on: NCI-H23 lung
[8] = tested on: CAKI-1 renal
[9] = tested on: SW-620 colon
[10] = tested on: COLO 205 colon
[11] = tested on: SF-295 CNS
[12] = tested on: HT29 colon
[13] = tested on: OVCAR-4 ovarian
[14] = tested on: SK-OV-3 ovarian

`CC(=O)OC/C=C\Cn1nc(Br)c(=O)[nH]c1=O` showed a TGI [1] of 29.6 µM, a TGI [2] of 27.2 µM and a TGI [3] of 26.5 µM. It also gave a TGI [4] of 31.1 µM, a TGI [5] of 30.1 µM and a TGI [6] of 22.6 µM. For the same molecule, the TGI [7] was 32.5 µM, the TGI [8] was 22.8 µM and the TGI [9] was 32.3 µM. The TGI [10] was 29.6 µM.

For `CNC(=O)SCC(N)C(=O)O` (stereo not drawn), the TGI [11] was > 100 µM, the TGI [1] was > 100 µM and the TGI [2] was > 100 µM. The TGI [3] was > 100 µM, the TGI [4] was > 100 µM and the TGI [5] was > 100 µM. For the same molecule, the TGI [6] was > 100 µM, the TGI [7] was > 100 µM and the TGI [12] was > 100 µM. The TGI [13] was > 100 µM, the TGI [14] was > 100 µM and the TGI [8] was > 100 µM. For the same molecule, the TGI [9] was > 100 µM and the TGI [10] was > 100 µM.

With `CC(=O)NC(c1nc2cc(C)c(C)cc2[nH]1)c1nc2cc(C)c(C)cc2[nH]1` the TGI [11] was 49.1 µM, the TGI [1] was 50.7 µM and the TGI [2] was 60 µM. The TGI [3] was > 100 µM, the TGI [4] was 83.7 µM and the TGI [5] was 34.2 µM. For the same molecule, the TGI [6] was 57.9 µM, the TGI [7] was > 100 µM and the TGI [12] was 78.1 µM. It also gave a TGI [13] of 72.8 µM, a TGI [14] of 71.9 µM and a TGI [8] of 52.2 µM. The TGI [9] was > 100 µM and the TGI [10] was 43.4 µM.

For `CC1CCC2(C(=O)O)CCC3(C)C(=CCC4C5(C)CCC(O)C(C)(C)C5CCC43C)C2C1C` (stereo not drawn), the TGI [11] was 10.2 µM, the GI50 [1] was 1.52 µM and 13.3 µM and the TGI [1] was 16.5 µM and 30.4 µM. The GI50 [2] was 5.53 µM and 13.3 µM, the TGI [2] was 15.4 µM and 26.6 µM and the TGI [3] was 15.6 µM. For the same molecule, the TGI [4] was 25.6 µM and 28.9 µM, the TGI [5] was 21 µM and 20.9 µM and the TGI [6] was 19.8 µM and > 100 µM. The TGI [7] was 24.4 µM and 34.3 µM, the TGI [12] was 22.9 µM and 37.7 µM and the TGI [13] was 24.2 µM and 31.9 µM. The TGI [14] was 27 µM and 35.1 µM, the TGI [8] was 16.6 µM and 17.5 µM and the GI50 [9] was 5.07 µM and 46.9 µM. The TGI [9] was 16.9 µM and > 100 µM and the TGI [10] was 26.3 µM and 28.3 µM.

With `OC1CCOc2ccccc21` (stereo not drawn) the TGI [2] was > 100 µM, the TGI [3] was > 100 µM and the TGI [4] was > 100 µM. The TGI [5] was > 100 µM, the TGI [6] was > 100 µM and the TGI [7] was > 100 µM. The TGI [12] was > 100 µM, the TGI [13] was > 100 µM and the TGI [14] was > 100 µM. For the same molecule, the TGI [8] was > 100 µM, the TGI [9] was > 100 µM and the TGI [10] was > 100 µM.

In the case of `CCC(=O)c1ccc2[nH]c3c(C)c4c(=O)cc(C)[nH]c4c(C)c3c2c1`, the TGI [11] is reported as > 100 µM, the TGI [1] is reported as > 100 µM and the TGI [2] is reported as > 100 µM. For the same molecule, the TGI [4] was > 100 µM, the TGI [5] was > 100 µM and the TGI [6] was > 100 µM. The TGI [7] was > 100 µM, the TGI [12] was > 100 µM and the TGI [13] was > 100 µM. The TGI [8] was > 100 µM, the TGI [9] was > 100 µM and the TGI [10] was > 100 µM.

`Cc1[nH]nc(N)c1C(N)=O` was tested, and the TGI [11] was > 100 µM, the TGI [1] was > 100 µM and the TGI [2] was > 100 µM. The TGI [3] was > 100 µM, the TGI [4] was > 100 µM and the TGI [5] was > 100 µM. For the same molecule, the TGI [7] was > 100 µM, the TGI [12] was > 100 µM and the TGI [13] was > 100 µM. For the same molecule, the TGI [14] was > 100 µM, the TGI [8] was > 100 µM and the TGI [9] was > 100 µM. For the same molecule, the TGI [10] was > 100 µM.

For `COc1cccc(/C=N/[N-]C(N)=O)c1[O-].[Ni+2].[OH3+].c1ccc(-c2ccccn2)nc1`, the TGI [11] was > 100 µM, the TGI [1] was > 100 µM and the TGI [2] was > 100 µM. The TGI [3] was > 100 µM, the TGI [4] was > 100 µM and the TGI [5] was > 100 µM. For the same molecule, the TGI [6] was > 100 µM, the TGI [7] was > 100 µM and the TGI [12] was > 100 µM. For the same molecule, the TGI [13] was > 100 µM, the TGI [14] was > 100 µM and the TGI [8] was > 100 µM. For the same molecule, the TGI [9] was > 100 µM and the TGI [10] was > 100 µM.

With `CCOC(=O)c1c(Cl)nc2ccccc2c1N=[N+]=[N-]` the TGI [11] was > 100 µM, the TGI [2] was 34.6 µM and the TGI [3] was > 100 µM. The TGI [4] was > 100 µM, the TGI [5] was 31.5 µM and the TGI [6] was 62.4 µM. The TGI [7] was > 100 µM, the TGI [12] was 34.2 µM and the TGI [13] was 31.7 µM. The TGI [14] was > 100 µM, the TGI [8] was 43.4 µM and the TGI [9] was 35.1 µM. For the same molecule, the TGI [10] was 36.1 µM.

With `S=C1CC(c2ccccc2)Sc2ccccc2N1` (stereo not drawn) the TGI [11] was > 100 µM, the TGI [1] was > 100 µM and the TGI [2] was > 100 µM. For the same molecule, the TGI [3] was > 100 µM, the TGI [4] was > 100 µM and the TGI [5] was > 100 µM. The TGI [6] was > 100 µM, the TGI [7] was > 100 µM and the TGI [12] was > 100 µM. For the same molecule, the TGI [13] was > 100 µM, the TGI [14] was > 100 µM and the TGI [8] was > 100 µM. The TGI [10] was > 100 µM.

`COc1cc(OC)c(/C=C\c2cc(/C=C/c3c(OC)cc(OC)cc3OC)c3ccccc3[n+]2C)c(OC)c1` was tested, and the TGI [11] was 10.9 µM, the TGI [1] was 14.2 µM and the TGI [2] was > 47.4 µM. The TGI [4] was 4.52 µM, the TGI [5] was 10.4 µM and the TGI [6] was > 61.4 µM. For the same molecule, the TGI [7] was 9.25 µM, the TGI [12] was 5.93 µM and the TGI [13] was 36.4 µM. For the same molecule, the TGI [14] was > 48 µM, the TGI [9] was > 36.3 µM and the TGI [10] was 6.1 µM.

Molecule `C/C=C/C1=CC(=O)C(O)C1O` (stereo not drawn) has a TGI [11] of 118 µM, a TGI [1] of 67.5 µM and a TGI [2] of 97.2 µM. It also gave a TGI [3] of 179 µM, a TGI [4] of 87.4 µM and a TGI [5] of 39 µM. For the same molecule, the TGI [6] was 129 µM, the TGI [7] was > 77.9 µM and the TGI [12] was 102 µM. For the same molecule, the TGI [13] was 111 µM, the TGI [14] was 130 µM and the TGI [8] was 43.7 µM. For the same molecule, the TGI [9] was 99.3 µM and the TGI [10] was 51.8 µM.

With `NC(=O)CCC(N=C(N)c1csc(C2OC(CO)C(O)C2O)n1)C(=O)O` (stereo not drawn) the TGI [11] was > 100 µM, the TGI [1] was > 100 µM and the TGI [2] was > 100 µM. For the same molecule, the TGI [3] was > 100 µM, the TGI [4] was > 100 µM and the TGI [5] was > 100 µM. The TGI [6] was > 100 µM, the TGI [7] was > 100 µM and the TGI [12] was > 100 µM. For the same molecule, the TGI [13] was > 100 µM, the TGI [14] was > 100 µM and the TGI [8] was > 100 µM. The TGI [9] was > 100 µM and the TGI [10] was > 100 µM.

For `O=C(N/N=C/c1cc(Cl)cc(Cl)c1[O-])c1ccccc1O.O=C(N/N=C/c1cc(Cl)cc(Cl)c1[O-])c1ccccc1O.[Zn+2]`, the TGI [11] was 5.21 µM, the TGI [1] was 16.4 µM and the TGI [2] was 15.6 µM. It also gave a TGI [3] of 33.4 µM, a GI50 [4] of 1.37 µM and a TGI [4] of 8.56 µM. For the same molecule, the GI50 [5] was 0.956 µM, the TGI [5] was 17.9 µM and the TGI [6] was 5.93 µM. It also gave a GI50 [7] of 0.56 µM, a TGI [7] of 11.2 µM and a TGI [12] of 13.7 µM. For the same molecule, the TGI [13] was 2.4 µM, the TGI [14] was 11.8 µM and the TGI [8] was 8.45 µM. The TGI [9] was 20.9 µM.
